Measured values from publication PMC4819005 (ACS chemical biology, 2015).
Each block holds one compound with its values, some of them ahead of it. Peptide text beside a SMILES is read from it.

Columns and labels:
[1] = tested on: 3T3-L1 cells; assay: In vitro adipocyte differentiation, Oil Red O staining for lipid accumulation; format: cell-based; conditions: differentiated 3T3-L1 preadipocytes, treated 2 or 3 days
[2] = tested on: aP2 (FABP4) mRNA in SVF cells; assay: qPCR of PPARγ target gene aP2; format: cell-based, murine; conditions: 5 μM compound, 3 days, normalized to GAPDH
[3] = Aggregation seen in SPR running buffer; format: physicochemical; conditions: PBS + 5%DMSO
[4] = target: PPARγ; conditions: cited from earlier work

Structure (SMILES): CCC(NC(=O)c1ccc2c(ccn2S(=O)(=O)c2cccc3ccccc23)c1)c1ccccc1 (stereo not shown) [SR2067, 1-(Naphthalen-1-ylsulfonyl)-N-(1-phenylpropyl)-1H-indole-5-carboxamide]
oil red staining for lipid accumulation [1]: less than that of the full agonist rosiglitazone but higher than that of the antagonist SR1664
expression levels of the PPARγ target gene aP2 [2]: lower than those observed in cells treated with the full agonist rosiglitazone but higher than those in cells exposed to the antagonist SR1664

concentration above which concentration-dependent aggregation occurs [3]: above 30 μM
Structure (SMILES): CN(CCOc1ccc(CC2SC(=O)NC2=O)cc1)c1ccccn1 (stereo not shown) [rosiglitazone, Rosiglitazone]

Structure (SMILES): N[C@@H](Cc1c[nH]c2ccccc12)C(=O)N[C@@H](CCC(=O)O)C(=O)O [G3335] (H-Trp-Glu-OH)
kd [4]: 0.028 s⁻¹
